Reference: patent US20250064864A1, “MICROBIAL STRAIN OF LACHNOSPIRACEAE, DRUG FOR PREVENTING OR TREATING TUMORS AND USE” (MOON (GUANGZHOU) BIOTECH CO., LTD., priority 2021, published 2025)
Where two headings read alike, the source gives them in different places.

Key:
MNH 46686 strain = assay: Antibiotic susceptibility test by disk diffusion method; type: cell-based, Lachnospiraceae sp. MNH 46686; conditions: for Diameter of inhibition zone: against MNH 46686 strain
Text: 2.4 Antibiotic Susceptibility Test of MNH 46686 Strain by Disk Diffusion Method

IFNβ = assay: THP-1 IFNβ-promoter reporter (luciferase) assay; type: cell-based; conditions: 20 μM, 40 μM and 80 μM, 24 h
Text: Interferon (IFN) […] are a group of cytokines secreted by host cells, which can regulate immune responses. Interferons are produced under stimulation by viruses, bacterial endotoxins, synthetic double-stranded RNAs, etc. Macrophages, lymphocytes, somatic cells, etc., in the human body can all produce interferons, in which IFNβ belongs to type I interferons and can promote the activities of NK cells, macrophages, and T lymphocytes. […] Furthermore, the MNH 46686 strain of the present disclosure has been experimentally verified to be able to promote the expression of IFNβ, thereby exerting anti-viral, anti-tumor, immunomodulatory, and other effects. In order to verify whether MNH 46686 can promote the expression of IFNβ, the constructed THP-1 cells (a cell line established by Moon Co.) carrying the IFNβ-promoter reporter were used in this study to evaluate the effect of MNH 46686 on the transcriptional activity of IFNβ. […]
The THP-1-IFNβ-promoter reporter cells were inoculated in a 96-well plate, with 1×10^5 cells per well. […] The chemiluminescence values were detected with a microplate reader. The relative luminescence values were normalized to the untreated group and compared with the relative luminescence readings of the High group to evaluate the effect of MNH 46686 on the transcriptional activity of IFNβ.

Compound | Note (susceptibility of MNH 46686 strain to the antibiotic) (MNH 46686 strain) | Diameter of inhibition zone (MNH 46686 strain) [mm] | also measured
CC1(C)S[C@@H]2[C@H](NC(=O)[C@H](N)c3ccccc3)C(=O)N2[C@H]1C(=O)O [Ampicillin] | Resistant | 0.00 | Note (susceptibility of MNH 46686 strain to the antibiotic) (MNH 46686 strain; listed as ampicillin): resistant
CO/N=C(\C(=O)N[C@@H]1C(=O)N2C(C(=O)O)=C(CSc3nc(=O)c(=O)[nH]n3C)CS[C@H]12)c1csc(N)n1 [Ceftriaxone] | Resistant | 0.00 | Note (susceptibility of MNH 46686 strain to the antibiotic) (MNH 46686 strain; listed as ceftriaxone): resistant
O=C(N[C@H](CO)[C@H](O)c1ccc([N+](=O)[O-])cc1)C(Cl)Cl [Chloramphenicol] | Sensitive | 18.45 | Note (susceptibility of MNH 46686 strain to the antibiotic) (MNH 46686 strain; listed as chloramphenicol): sensitive
O=C(O)c1cn(C2CC2)c2cc(N3CCNCC3)c(F)cc2c1=O [Ciprofloxacin] | Resistant | 0.00 | Note (susceptibility of MNH 46686 strain to the antibiotic) (MNH 46686 strain; listed as ciprofloxacin): resistant
CC[C@H]1OC(=O)[C@H](C)[C@@H](O[C@H]2C[C@@](C)(OC)[C@@H](O)[C@H](C)O2)[C@H](C)[C@@H](O[C@@H]2O[C@H](C)C[C@H](N(C)C)[C@H]2O)[C@](C)(O)C[C@@H](C)C(=O)[C@H](C)[C@@H](O)[C@]1(C)O [Erythromycin] | Resistant | 0.00 | Note (susceptibility of MNH 46686 strain to the antibiotic) (MNH 46686 strain; listed as erythromycin): resistant
CCC[C@@H]1C[C@@H](C(=O)N[C@@H]([C@H]2O[C@H](SC)[C@H](O)[C@@H](O)[C@H]2O)[C@@H](C)O)N(C)C1 [Lincomycin] | Resistant | 0.00 | Note (susceptibility of MNH 46686 strain to the antibiotic) (MNH 46686 strain; listed as lincomycin): resistant
COc1cc2cc(C(=O)CCC(=O)O)sc2cc1OC [MSA-2] |  |  | response of the IFNβ reporter system to the positive drug (IFNβ): good response
CN(C)[C@@H]1C(O)=C(C(N)=O)C(=O)[C@@]2(O)C(O)=C3C(=O)c4c(O)cccc4[C@@](C)(O)[C@H]3C[C@@H]12 [Tetracycline] |  | 12.01 | 
Gentamicin | Sensitive | 10.90 | Note (susceptibility of MNH 46686 strain to the antibiotic) (MNH 46686 strain; listed as gentamicin): sensitive
Penicillin | Sensitive | 19.69 | Note (susceptibility of MNH 46686 strain to the antibiotic) (MNH 46686 strain; listed as penicillin): sensitive
Trimethoprim-sulfamethoxazole | Resistant | 0.00 | Note (susceptibility of MNH 46686 strain to the antibiotic) (MNH 46686 strain; listed as trimethoprim-sulfamethoxazole): resistant
